Reference: the NIST ThermoML archive (doi:10.1021/acs.jced.8b01135)
± gives the expanded uncertainty stated by the source.

Test: xn = mol fraction of the nth substance listed
Settings: 102 kPa, Liquid; for speed of sound: Frequency=3 MHz, Single path-length method; for mass density: Vibrating tube method; for viscosity: Concentric cylinders viscometry

CCCCCCCCCCC1CCCCC1 [decylcyclohexane] + CCCCCCCCCCCC
Settings | mass density [kg/m3] | speed of sound [m/s] | viscosity [mPa·s]
288.15 K, x1 = 0.1003 | 760.76 ± 0.71 | 1329.7 ± 0.8 | –
288.15 K, x1 = 0.2194 | 770.26 ± 0.71 | 1344 ± 0.8 | –
288.15 K, x1 = 0.3002 | 776.43 ± 0.71 | 1353.5 ± 0.8 | –
288.15 K, x1 = 0.4004 | 783.8 ± 0.71 | 1364.7 ± 0.9 | –
288.15 K, x1 = 0.4999 | 790.8 ± 0.71 | 1375.6 ± 0.9 | –
288.15 K, x1 = 0.5993 | 797.51 ± 0.71 | 1386.2 ± 0.9 | –
288.15 K, x1 = 0.7001 | 804.03 ± 0.71 | 1396.3 ± 0.9 | –
288.15 K, x1 = 0.8005 | 810.28 ± 0.71 | 1406.3 ± 0.9 | –
288.15 K, x1 = 0.8991 | 816.18 ± 0.71 | 1415.8 ± 0.9 | –
288.15 K, x1 = 1 | 821.93 ± 0.71 | 1425.2 ± 0.9 | –
293.15 K, x1 = 0.1003 | 757.16 ± 0.71 | 1310.3 ± 0.8 | 1.7 ± 0.02
293.15 K, x1 = 0.2194 | 766.69 ± 0.71 | 1324.7 ± 0.8 | 1.98 ± 0.02
293.15 K, x1 = 0.3002 | 772.89 ± 0.71 | 1334.2 ± 0.8 | 2.19 ± 0.02
293.15 K, x1 = 0.4004 | 780.28 ± 0.71 | 1345.7 ± 0.9 | 2.48 ± 0.02
293.15 K, x1 = 0.4999 | 787.31 ± 0.71 | 1356.6 ± 0.9 | 2.82 ± 0.02
293.15 K, x1 = 0.5993 | 794.05 ± 0.71 | 1367.1 ± 0.9 | 3.2 ± 0.03
293.15 K, x1 = 0.7001 | 800.58 ± 0.71 | 1377.5 ± 0.9 | 3.64 ± 0.03
293.15 K, x1 = 0.8005 | 806.85 ± 0.71 | 1387.5 ± 0.9 | 4.13 ± 0.03
293.15 K, x1 = 0.8991 | 812.78 ± 0.71 | 1397.1 ± 0.9 | 4.68 ± 0.05
293.15 K, x1 = 1 | 818.54 ± 0.71 | 1406.4 ± 0.9 | 5.34 ± 0.03
298.15 K, x1 = 0.1003 | 753.56 ± 0.71 | 1290.9 ± 0.8 | –
298.15 K, x1 = 0.2194 | 763.13 ± 0.71 | 1305.4 ± 0.8 | –
298.15 K, x1 = 0.3002 | 769.34 ± 0.71 | 1315 ± 0.8 | –
298.15 K, x1 = 0.4004 | 776.76 ± 0.71 | 1326.8 ± 0.9 | –
298.15 K, x1 = 0.4999 | 783.81 ± 0.71 | 1337.8 ± 0.9 | –
298.15 K, x1 = 0.5993 | 790.58 ± 0.71 | 1348.6 ± 0.9 | –
298.15 K, x1 = 0.7001 | 797.13 ± 0.71 | 1358.8 ± 0.9 | –
298.15 K, x1 = 0.8005 | 803.42 ± 0.71 | 1368.8 ± 0.9 | –
298.15 K, x1 = 0.8991 | 809.36 ± 0.71 | 1378.5 ± 0.9 | –
298.15 K, x1 = 1 | 815.16 ± 0.71 | 1387.7 ± 0.9 | –
303.15 K, x1 = 0.1003 | 749.96 ± 0.71 | 1271.8 ± 0.8 | 1.43 ± 0.02
303.15 K, x1 = 0.2194 | 759.57 ± 0.71 | 1286.4 ± 0.8 | 1.65 ± 0.02
303.15 K, x1 = 0.3002 | 765.8 ± 0.71 | 1296 ± 0.8 | 1.79 ± 0.02
303.15 K, x1 = 0.4004 | 773.24 ± 0.71 | 1308.1 ± 0.9 | 2.02 ± 0.02
303.15 K, x1 = 0.4999 | 780.31 ± 0.71 | 1319.1 ± 0.9 | 2.27 ± 0.02
303.15 K, x1 = 0.5993 | 787.1 ± 0.71 | 1329.7 ± 0.9 | 2.55 ± 0.02
303.15 K, x1 = 0.7001 | 793.68 ± 0.71 | 1340.2 ± 0.9 | 2.88 ± 0.03
303.15 K, x1 = 0.8005 | 799.99 ± 0.71 | 1350.4 ± 0.9 | 3.23 ± 0.03
303.15 K, x1 = 0.8991 | 805.95 ± 0.71 | 1360.1 ± 0.9 | 3.63 ± 0.03
303.15 K, x1 = 1 | 811.78 ± 0.71 | 1369.1 ± 0.9 | 4.09 ± 0.03
313.15 K, x1 = 0.1003 | 742.75 ± 0.71 | 1234.1 ± 0.8 | 1.21 ± 0.02
313.15 K, x1 = 0.2194 | 752.43 ± 0.71 | 1248.9 ± 0.8 | 1.39 ± 0.02
313.15 K, x1 = 0.3002 | 758.71 ± 0.71 | 1258.7 ± 0.8 | 1.49 ± 0.02
313.15 K, x1 = 0.4004 | 766.19 ± 0.71 | 1271 ± 0.9 | 1.67 ± 0.02
313.15 K, x1 = 0.4999 | 773.32 ± 0.71 | 1282.2 ± 0.9 | 1.87 ± 0.02
313.15 K, x1 = 0.5993 | 780.16 ± 0.71 | 1292 ± 0.9 | 2.08 ± 0.02
313.15 K, x1 = 0.7001 | 786.78 ± 0.71 | 1303.7 ± 0.9 | 2.33 ± 0.02
313.15 K, x1 = 0.8005 | 793.13 ± 0.71 | 1313.9 ± 0.9 | 2.6 ± 0.02
313.15 K, x1 = 0.8991 | 799.14 ± 0.71 | 1323.7 ± 0.9 | 2.89 ± 0.03
313.15 K, x1 = 1 | 805.02 ± 0.71 | 1332.8 ± 0.9 | 3.23 ± 0.03
323.15 K, x1 = 0.1003 | 735.51 ± 0.71 | 1197.2 ± 0.8 | 1.04 ± 0.02
323.15 K, x1 = 0.2194 | 745.28 ± 0.71 | 1212.3 ± 0.8 | 1.19 ± 0.02
323.15 K, x1 = 0.3002 | 751.59 ± 0.71 | 1222.1 ± 0.8 | 1.29 ± 0.02
323.15 K, x1 = 0.4004 | 759.13 ± 0.71 | 1234.7 ± 0.9 | 1.41 ± 0.02
323.15 K, x1 = 0.4999 | 766.31 ± 0.71 | 1246 ± 0.9 | 1.56 ± 0.02
323.15 K, x1 = 0.5993 | 773.2 ± 0.71 | 1257 ± 0.9 | 1.73 ± 0.02
323.15 K, x1 = 0.7001 | 779.88 ± 0.71 | 1267.7 ± 0.9 | 1.92 ± 0.02
323.15 K, x1 = 0.8005 | 786.28 ± 0.71 | 1278.1 ± 0.9 | 2.13 ± 0.02
323.15 K, x1 = 0.8991 | 792.33 ± 0.71 | 1288 ± 0.9 | 2.35 ± 0.02
323.15 K, x1 = 1 | 798.26 ± 0.71 | 1297.2 ± 0.9 | 2.6 ± 0.02
333.15 K, x1 = 0.1003 | 728.24 ± 0.71 | 1161.3 ± 0.8 | 0.904 ± 0.021
333.15 K, x1 = 0.2194 | 738.08 ± 0.71 | 1176.5 ± 0.8 | 1.02 ± 0.02
333.15 K, x1 = 0.3002 | 744.46 ± 0.71 | 1186.5 ± 0.8 | 1.11 ± 0.02
333.15 K, x1 = 0.4004 | 752.05 ± 0.71 | 1199.1 ± 0.9 | 1.2 ± 0.02
333.15 K, x1 = 0.4999 | 759.29 ± 0.71 | 1210.6 ± 0.9 | 1.32 ± 0.02
333.15 K, x1 = 0.5993 | 766.23 ± 0.71 | 1221.8 ± 0.9 | 1.46 ± 0.02
333.15 K, x1 = 0.7001 | 772.96 ± 0.71 | 1232.7 ± 0.9 | 1.61 ± 0.02
333.15 K, x1 = 0.8005 | 779.42 ± 0.71 | 1243.2 ± 0.9 | 1.78 ± 0.02
333.15 K, x1 = 0.8991 | 785.51 ± 0.71 | 1253.2 ± 0.9 | 1.95 ± 0.02
333.15 K, x1 = 1 | 791.49 ± 0.71 | 1262.7 ± 0.9 | 2.15 ± 0.02
